Assay results: US8815857B2 (Boehringer Ingelheim International GmbH, priority 2011, dated 2014)
Values after ≈ are worked out from the molar mass of the structure shown.

What was measured:
[1] = target: T1, human soluble guanylate cyclase alpha 1 and beta 1 subunits (sGC) stably expressed in Chinese hamster ovary cells (Homo sapiens, UniProt Q02108+Q02153); test: sGC cellular activator assay: cGMP in CHO cells expressing human sGC, preincubated with ODQ; type: cell-based; conditions: 40 microM ODQ preincubation, 30 min at room temperature, presence or absence of 50% human serum not given, read-out: EC50 nM, Activity of Compounds in Cellular Assay
T1 construct: expressed in transfected cells; host or cells: Chinese hamster ovary cells, stably transfected
T1 sequence (Q02108 1-690 partner): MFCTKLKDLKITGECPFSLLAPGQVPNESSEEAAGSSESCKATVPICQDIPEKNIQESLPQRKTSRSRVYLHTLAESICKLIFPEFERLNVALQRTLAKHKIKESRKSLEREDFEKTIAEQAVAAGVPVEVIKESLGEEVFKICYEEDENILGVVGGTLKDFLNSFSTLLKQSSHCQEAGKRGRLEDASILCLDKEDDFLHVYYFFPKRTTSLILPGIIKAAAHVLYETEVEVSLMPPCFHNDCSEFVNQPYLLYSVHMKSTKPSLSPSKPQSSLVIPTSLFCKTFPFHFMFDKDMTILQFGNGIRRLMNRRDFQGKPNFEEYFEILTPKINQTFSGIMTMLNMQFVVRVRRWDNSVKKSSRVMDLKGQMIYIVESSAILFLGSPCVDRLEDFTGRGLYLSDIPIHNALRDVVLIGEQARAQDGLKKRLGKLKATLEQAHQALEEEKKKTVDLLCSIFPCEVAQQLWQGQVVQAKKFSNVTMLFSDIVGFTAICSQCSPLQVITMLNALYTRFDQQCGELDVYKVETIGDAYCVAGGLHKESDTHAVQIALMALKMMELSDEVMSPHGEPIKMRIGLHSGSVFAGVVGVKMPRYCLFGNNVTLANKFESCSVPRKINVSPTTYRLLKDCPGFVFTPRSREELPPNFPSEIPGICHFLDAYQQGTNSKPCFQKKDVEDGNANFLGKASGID
T1 sequence (Q02153 1-619): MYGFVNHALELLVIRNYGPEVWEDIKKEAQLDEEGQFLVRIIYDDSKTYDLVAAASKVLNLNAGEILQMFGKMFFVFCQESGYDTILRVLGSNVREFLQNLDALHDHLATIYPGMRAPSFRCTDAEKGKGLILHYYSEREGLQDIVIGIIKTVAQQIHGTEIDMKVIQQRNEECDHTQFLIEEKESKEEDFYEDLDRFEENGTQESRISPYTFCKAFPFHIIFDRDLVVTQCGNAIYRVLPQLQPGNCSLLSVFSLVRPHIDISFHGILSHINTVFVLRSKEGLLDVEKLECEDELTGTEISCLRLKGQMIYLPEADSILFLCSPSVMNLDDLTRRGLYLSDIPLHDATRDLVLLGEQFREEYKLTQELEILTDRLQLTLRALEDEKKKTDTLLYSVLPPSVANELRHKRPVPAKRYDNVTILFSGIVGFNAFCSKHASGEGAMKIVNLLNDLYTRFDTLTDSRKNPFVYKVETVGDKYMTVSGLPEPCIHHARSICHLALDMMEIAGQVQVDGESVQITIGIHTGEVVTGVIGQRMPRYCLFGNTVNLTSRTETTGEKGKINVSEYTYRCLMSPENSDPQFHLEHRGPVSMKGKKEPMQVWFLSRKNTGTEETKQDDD
Summary of the method: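 EC50 values derive from HTRF cGMP measurement after test compounds act for thirty minutes at room temperature, with or without 50% human serum. Before dosing, the sGC-transfected CHO cells spend one hour with the inhibitor ODQ (40 microM) in IBMX- and 0.1% BSA-containing buffer.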

[2] = Assessment of solubility: HT solubility in pION buffer, UV spectrophotometry; conditions: for solubility: kinetic from dmso stock
Method: Solubility is measured by the following method.
DMSO stock samples at 10 mM concentration are prepared. […] The samples are pierced and 100 ul of thawed samples are transferred into the PCR plate for analysis. Each sample is run in duplicate at each pH (pH 4.5 and 7.4). Up to 95 samples can be run in replicate at 2 pH's+1 DMSO (blank).
Preparation of pH 4.5 and 7.4 Buffers:
• pH 4.5 buffer:—To 12.5 of system solution (pION)qs to 500 mL of distilled water (pH 2.85-2.90); adjust the pH to pH 4.5 with 0.5 N NaOH. • pH 7.4 buffer: To 12.5 of system solution (pION)qs to 500 mL of distilled water (pH 2.85-2.90); adjust the pH to pH 7.4 with 0.5N NaOH. […] Procedure: Preparation of UV Blank Plate:
75 ul of buffer (pH 7.4 or pH 4.5) is added to UV plate followed by addition of 70 ul of N-propanol. The solution is mixed and the blank spectrum is read using spectrophotometer.
Preparation of Reference UV Plate:
10 ul of each stock sample (including DMSO control) is added to 190 ul of N-propanol to prepare the reference stock plate. Reference stock samples are mixed and 5 ul of each stock sample is added to UV blank plate after it is read spectrophotometrically. The reference stock sample is mixed with blank solution in UV plate and the reference spectrum is read using UV spectrophotometer.
Preparation of Sample for Incubation:
Solubility at pH 7.4:6 ul of each stock sample (including DMSO control) is added to the storage plate containing 600 ul of pH 7.4 buffer, mixed and incubated for 16-19 h. The plate is sealed well during the incubation process. The DMSO content in the sample is 1.0%. The concentration in deep well plates is 100 uM
6 ul of each stock sample (including DMSO control) is added to the deep well plate containing 600 ul of pH 4.5 buffer, mixed and incubated for 16-19 h. The plate is sealed well during the incubation process. The DMSO content in the sample is 1.0%. The concentration in deep well plates is 100 uM
Preparation of Sample UV Plate:
At the end of the incubation period, 100 uL of sample from the storage plate is vacuum filtered using a filter plate. This step wets the filters and the filtrate is discarded. Another 200 ul of the sample from the deep well plate is vacuum filtered using the same filter block but a clean filter plate. 75 ul of the filtrate from the filter plate is transferred to a UV sample plate. 75 ul of N-propanol is added to this UV plate. The solution is mixed and the spectrum is read using the UV spectrophotometer.
The spectra collected for blank, reference and sample from 250-498 nm is analyzed using pION software. If the sample precipitates out, the solubility is reported as XX μg/ml.

[3] = pH 6.8, aqueous buffer, Solubility (pH 6.8), pH 6.8
[4] = pION system solution buffer, pH 4.5, pH 4.5, aqueous buffer, Solubility (pH 4.5), pH 4.5 buffer, 16-19 h incubation, 1.0% DMSO
[5] = pION system solution buffer, pH 7.4, pH 7.4, aqueous buffer, Solubility (pH 7.4), pH 7.4 buffer, 16-19 h incubation, 1.0% DMSO

SMILES | EC50 [1] | solubility [2, 3] | solubility [2, 4] | Solubility (pH 4.5) ([2]; pH 4.5 buffer, 16-19 h incubation, 1.0% DMSO) | solubility [2, 5]
Cc1ccc(OCc2ccc(C(=O)N(C)CCCO)cc2C)c(-c2csc(N3C[C@H]4CC[C@@H](C3)[C@H]4C(=O)O)n2)c1 [Compound 324] | 66 nM | 73 µg/mL (≈ 129 µM) | 0.92 µg/mL (≈ 1.63 µM) | – | –
Cc1ccc(OCc2ccc(C(=O)N3CC[C@H](CO)C3)cc2C)c(-c2csc(N3C[C@H]4CC[C@@H](C3)[C@H]4C(=O)O)n2)c1 [Compound 325] | 29 nM | 59 µg/mL (≈ 102 µM) | 0.17 µg/mL (≈ 0.295 µM) | – | –
Cc1ccc(OCc2ccc(C(=O)N3CC[C@@H](CO)C3)cc2C)c(-c2csc(N3C[C@H]4CC[C@@H](C3)[C@H]4C(=O)O)n2)c1 [Compound 326] | 61 nM | 65 µg/mL (≈ 113 µM) | 0.21 µg/mL (≈ 0.365 µM) | – | –
Cc1ccc(OCc2ccc(C(=O)N3CCn4ncnc4C3)cc2C)c(-c2csc(N3C[C@H]4CC[C@@H](C3)[C@H]4C(=O)O)n2)c1 [Compound 327] | 14 nM | 71 µg/mL (≈ 119 µM) | < 0.1 µg/mL | – | –
CO[C@H]1CCN(C(=O)c2ccc(COc3ccc(C)cc3-c3csc(N4C[C@H]5CC[C@@H](C4)[C@H]5C(=O)O)n3)c(C)c2)C1 [Compound 328] | 29 nM | 62 µg/mL (≈ 108 µM) | < 0.1 µg/mL | – | –
CO[C@@H]1CCN(C(=O)c2ccc(COc3ccc(C)cc3-c3csc(N4C[C@H]5CC[C@@H](C4)[C@H]5C(=O)O)n3)c(C)c2)C1 [Compound 329] | 23 nM | 56 µg/mL (≈ 97.3 µM) | < 0.1 µg/mL | – | –
Cc1ccc(OCc2ccc(C(=O)N(C)CC#N)cc2C)c(-c2csc(N3C[C@H]4CC[C@@H](C3)[C@H]4C(=O)O)n2)c1 [Compound 330] | 52 nM | 40 µg/mL (≈ 73.4 µM) | < 0.1 µg/mL | – | –
Cc1ccc(OCc2ccc(C(=O)N(C)Cc3cncn3C)cc2C)c(-c2csc(N3C[C@H]4CC[C@@H](C3)[C@H]4C(=O)O)n2)c1 [Compound 331] | 140 nM | 47 µg/mL (≈ 78.4 µM) | 42 µg/mL (≈ 70 µM) | – | –
CCOC1CCN(C(=O)c2ccc(COc3ccc(C)cc3-c3csc(N4C[C@H]5CC[C@@H](C4)[C@H]5C(=O)O)n3)c(C)c2)C1 (some centres unmarked) [Compound 332] | 30 nM | 35 µg/mL (≈ 59.3 µM) | 0.14 µg/mL (≈ 0.237 µM) | – | –
Cc1ccc(OCc2ccc(C(=O)N3CCn4cnnc4C3)cc2C)c(-c2csc(N3C[C@H]4CC[C@@H](C3)[C@H]4C(=O)O)n2)c1 [Compound 333] | 110 nM | 59 µg/mL (≈ 98.5 µM) | 1.1 µg/mL (≈ 1.84 µM) | – | –
Cc1ccc(OCc2ccc(C(=O)N(C)Cc3ncc[nH]3)cc2C)c(-c2csc(N3C[C@H]4CC[C@@H](C3)[C@H]4C(=O)O)n2)c1 [Compound 334] | 160 nM | 24 µg/mL (≈ 41 µM) | 11 µg/mL (≈ 18.8 µM) | – | –
CCOCCN(C)C(=O)c1ccc(COc2ccc(C)cc2-c2csc(N3C[C@H]4CC[C@@H](C3)[C@H]4C(=O)O)n2)c(C)c1 [Compound 335] | 70 nM | 49 µg/mL (≈ 84.8 µM) | 0.4 µg/mL (≈ 0.692 µM) | – | –
Cc1ccc(OCc2ccc(C(=O)N3CCCC(C)(O)C3)cc2C)c(-c2csc(N3C[C@H]4CC[C@@H](C3)[C@H]4C(=O)O)n2)c1 (some centres unmarked) [Compound 336] | 79 nM | 6.1 µg/mL (≈ 10.3 µM) | 0.16 µg/mL (≈ 0.271 µM) | – | –
Cc1ccc(OCc2ccc(C(=O)N3CCCC(C#N)C3)cc2C)c(-c2csc(N3C[C@H]4CC[C@@H](C3)[C@H]4C(=O)O)n2)c1 (some centres unmarked) [Compound 337] | 14 nM | 1.5 µg/mL (≈ 2.57 µM) | < 0.1 µg/mL | – | –
COCCCN(C)C(=O)c1ccc(COc2ccc(C)cc2-c2csc(N3C[C@H]4CC[C@@H](C3)[C@H]4C(=O)O)n2)c(C)c1 [Compound 338] | 43 nM | 58 µg/mL (≈ 100 µM) | 0.13 µg/mL (≈ 0.225 µM) | – | –
Cc1ccc(OCc2ccc(C(=O)N(C)Cc3nccn3C)cc2C)c(-c2csc(N3C[C@H]4CC[C@@H](C3)[C@H]4C(=O)O)n2)c1 [Compound 339] | 41 nM | 48 µg/mL (≈ 80 µM) | 32 µg/mL (≈ 53.4 µM) | – | –

SMILES | EC50 [1] | solubility [2, 3] | solubility [2, 4] | Solubility (pH 4.5) ([2]; pH 4.5 buffer, 16-19 h incubation, 1.0% DMSO) | solubility [2, 5]
Cc1ccc(OCc2ccc(C(=O)N3C[C@H]4CC[C@@H](C3)O4)cc2C)c(-c2csc(N3C[C@H]4CC[C@@H](C3)[C@H]4C(=O)O)n2)c1 [Compound 340] | 19 nM | 0.26 µg/mL (≈ 0.442 µM) | < 0.1 µg/mL | – | –
Cc1ccc(OCc2ccc(C(=O)N3CC[C@@H](O)C3)cc2C)c(-c2csc(N3C[C@H]4CC[C@@H](C3)[C@H]4C(=O)O)n2)c1 [Compound 341] | 110 nM | 63 µg/mL (≈ 112 µM) | 1.1 µg/mL (≈ 1.96 µM) | – | –
Cc1ccc(OCc2ccc(C(=O)N(C)CC3(CO)CC3)cc2C)c(-c2csc(N3C[C@H]4CC[C@@H](C3)[C@H]4C(=O)O)n2)c1 [Compound 342] | 110 nM | 55 µg/mL (≈ 93.3 µM) | < 0.1 µg/mL | – | –
Cc1ccc(OCc2ccc(C(=O)N(C)Cc3ccn(C)n3)cc2C)c(-c2csc(N3C[C@H]4CC[C@@H](C3)[C@H]4C(=O)O)n2)c1 [Compound 343] | 46 nM | 52 µg/mL (≈ 86.7 µM) | < 0.1 µg/mL | – | –
COCCN(C)C(=O)c1ccc(COc2ccc(C)cc2-c2csc(N3C[C@H]4CC[C@@H](C3)[C@H]4C(=O)O)n2)c(C)c1 [Compound 344] | 23 nM | 61 µg/mL (≈ 108 µM) | – | 0.1 μg/mL | > 58 µg/mL
Cc1ccc(OCc2ccc(C(=O)N(C)CC(=O)N(C)C)cc2C)c(-c2csc(N3C[C@H]4CC[C@@H](C3)[C@H]4C(=O)O)n2)c1 [Compound 345] | 130 nM | 66 µg/mL (≈ 112 µM) | 4 µg/mL (≈ 6.77 µM) | – | > 58 µg/mL
Cc1ccc(OCc2ccc(C(=O)N(C)CC(C)(C)CO)cc2C)c(-c2csc(N3C[C@H]4CC[C@@H](C3)[C@H]4C(=O)O)n2)c1 [Compound 346] | 67 nM | 36 µg/mL (≈ 60.8 µM) | 0.46 µg/mL (≈ 0.777 µM) | – | > 54 µg/mL
CNC(=O)CN(C)C(=O)c1ccc(COc2ccc(C)cc2-c2csc(N3C[C@H]4CC[C@@H](C3)[C@H]4C(=O)O)n2)c(C)c1 [Compound 347] | 260 nM | 70 µg/mL (≈ 121 µM) | 5.8 µg/mL (≈ 10.1 µM) | – | > 53 µg/mL
Cc1ccc(OCc2ccc(C(=O)N(C)CCC(C)(C)O)cc2C)c(-c2csc(N3C[C@H]4CC[C@@H](C3)[C@H]4C(=O)O)n2)c1 [Compound 348] | 41 nM | 71 µg/mL (≈ 120 µM) | 0.27 µg/mL (≈ 0.456 µM) | – | 37 µg/mL (≈ 62.5 µM)
Cc1ccc(OCc2ccc(C(=O)N3CCN(C)C(=O)C3)cc2C)c(-c2csc(N3CCC(C(=O)O)CC3)n2)c1 [Compound 349] | 40 nM | 69 µg/mL (≈ 123 µM) | 6.5 µg/mL (≈ 11.6 µM) | – | –
Cc1ccc(OCc2ccc(CN(C)[C@@H]3CCS(=O)(=O)C3)cc2C)c(-c2csc(N3C[C@H]4CC[C@@H](C3)[C@H]4C(=O)O)n2)c1 [Compound 351] | 10 nM | 1.3 µg/mL (≈ 2.13 µM) | 0.21 µg/mL (≈ 0.344 µM) | – | –
Cc1ccc(OCc2ccc(CN3CCN(C)C(=O)C3)cc2C#N)c(-c2csc(N3C[C@H]4CC[C@@H](C3)[C@H]4C(=O)O)n2)c1 [Compound 354] | 3.8 nM | 57 µg/mL (≈ 97.3 µM) | 0.42 µg/mL (≈ 0.717 µM) | – | –
Cc1ccc(OCc2ccc(CN3CCOC(C#N)C3)cc2C#N)c(-c2csc(N3C[C@H]4CC[C@@H](C3)[C@H]4C(=O)O)n2)c1 (some centres unmarked) [Compound 355] | 9.2 nM | 7 µg/mL (≈ 12 µM) | 0.77 µg/mL (≈ 1.32 µM) | – | –
Cc1ccc(OCc2ccc(CN3C[C@@H](C)O[C@@H](C)C3)cc2C#N)c(-c2csc(N3C[C@H]4CC[C@@H](C3)[C@H]4C(=O)O)n2)c1 [Compound 356] | 24 nM | 1.6 µg/mL (≈ 2.73 µM) | 2.7 µg/mL (≈ 4.6 µM) | – | –
Cc1ccc(OCc2ccc(CN3CCO[C@H](C)C3)cc2C#N)c(-c2csc(N3C[C@H]4CC[C@@H](C3)[C@H]4C(=O)O)n2)c1 [Compound 357] | 24 nM | 11 µg/mL (≈ 19.2 µM) | 2.3 µg/mL (≈ 4.02 µM) | – | –
